Data from patent US20250346569A1, “NEW DERIVATIVES FOR TREATING TRPM3 MEDIATED DISORDERS” (Katholieke Universiteit Leuven, priority 2022, published 2025).

Target: T1, mouse TRPM3α2 (mTRPM3) ion channel (Mus musculus, UniProt J9SQF3)
T1 construct: expressed in transfected cells; host or cells: flip-in HEK293
Assay: Monitoring the TRPM3 ion channel driven Ca2+ uptake (Fluo-4 AM assay)
Assay type: cell-based
Conditions: TRPM3 overexpressing flip-in HEK293 cells, channel stimulated with Pregnenolone sulfate (PS) 50 μM
Procedure, shortened: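 Flp-In HEK293 cells overexpressing mTRPM3α2, loaded with Fluo-4 AM and added to wells holding compound plus 50 μM pregnenolone sulfate in Ca2+-containing Krebs buffer. Fluorescence (ex 485/em 535) read right after cell addition. Inhibition normalised to vehicle and positive-control inhibitor; IC50 derived.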

T1 sequence (J9SQF3 1-1709 isoform J9SQF3-12): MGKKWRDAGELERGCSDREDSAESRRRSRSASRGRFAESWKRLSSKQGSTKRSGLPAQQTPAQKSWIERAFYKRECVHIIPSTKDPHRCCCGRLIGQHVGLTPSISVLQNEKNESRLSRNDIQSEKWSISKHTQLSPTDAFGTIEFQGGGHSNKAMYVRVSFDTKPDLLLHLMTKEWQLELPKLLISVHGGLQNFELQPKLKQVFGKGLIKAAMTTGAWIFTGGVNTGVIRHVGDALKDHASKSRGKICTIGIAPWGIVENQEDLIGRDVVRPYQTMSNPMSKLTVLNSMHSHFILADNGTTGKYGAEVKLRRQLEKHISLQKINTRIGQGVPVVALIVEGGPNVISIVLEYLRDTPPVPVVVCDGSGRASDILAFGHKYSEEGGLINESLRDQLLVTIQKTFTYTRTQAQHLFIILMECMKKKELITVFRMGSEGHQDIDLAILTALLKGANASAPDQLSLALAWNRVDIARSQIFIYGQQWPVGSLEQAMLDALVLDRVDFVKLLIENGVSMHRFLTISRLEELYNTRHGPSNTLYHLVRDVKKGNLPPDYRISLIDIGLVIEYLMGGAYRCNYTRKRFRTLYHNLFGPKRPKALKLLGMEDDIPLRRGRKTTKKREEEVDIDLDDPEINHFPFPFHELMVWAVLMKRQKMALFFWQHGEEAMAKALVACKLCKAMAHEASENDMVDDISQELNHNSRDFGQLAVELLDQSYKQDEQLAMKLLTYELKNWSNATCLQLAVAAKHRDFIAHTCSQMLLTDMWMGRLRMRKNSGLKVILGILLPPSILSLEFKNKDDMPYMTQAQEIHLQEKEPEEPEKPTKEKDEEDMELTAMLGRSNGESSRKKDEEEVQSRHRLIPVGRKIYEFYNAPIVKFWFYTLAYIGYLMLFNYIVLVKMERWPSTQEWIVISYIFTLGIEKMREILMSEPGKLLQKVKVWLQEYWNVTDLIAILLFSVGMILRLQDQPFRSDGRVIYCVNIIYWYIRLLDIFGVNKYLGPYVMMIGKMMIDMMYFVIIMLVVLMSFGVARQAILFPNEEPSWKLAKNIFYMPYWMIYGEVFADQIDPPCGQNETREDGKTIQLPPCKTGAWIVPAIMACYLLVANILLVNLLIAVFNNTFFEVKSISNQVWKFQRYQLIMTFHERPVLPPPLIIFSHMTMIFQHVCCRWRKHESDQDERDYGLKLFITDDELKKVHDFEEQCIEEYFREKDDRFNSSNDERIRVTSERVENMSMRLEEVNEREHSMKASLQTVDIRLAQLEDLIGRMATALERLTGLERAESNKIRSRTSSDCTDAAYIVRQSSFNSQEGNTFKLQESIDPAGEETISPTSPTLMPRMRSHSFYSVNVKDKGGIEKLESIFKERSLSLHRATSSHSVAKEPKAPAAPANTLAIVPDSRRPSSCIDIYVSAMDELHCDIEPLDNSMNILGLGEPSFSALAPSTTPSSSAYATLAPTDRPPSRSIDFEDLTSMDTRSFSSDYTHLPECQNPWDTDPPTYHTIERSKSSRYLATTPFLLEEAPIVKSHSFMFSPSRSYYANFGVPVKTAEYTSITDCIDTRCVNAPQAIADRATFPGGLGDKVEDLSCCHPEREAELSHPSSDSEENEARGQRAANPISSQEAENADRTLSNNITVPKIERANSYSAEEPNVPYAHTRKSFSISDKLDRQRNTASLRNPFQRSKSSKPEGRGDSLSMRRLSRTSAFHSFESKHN

SMILES	IC50 [nM]
CNC(=O)c1c(C)sc2ccc(OCc3ccccc3)cc12 [Cpd 134, 5-(benzyloxy)-N,2-dimethyl-1-benzothiophene-3-carboxamide]	> 20000
CN(C)CCNC(=O)c1c(C(F)F)sc2ccc(OCc3ccccc3)cc12 [Cpd 116, 5-(benzyloxy)-2-(difluoromethyl)-N-[2-(dimethylamino)ethyl]-1-benzothiophene-3-carboxamide]	1000 to 20000
CNC(=O)c1c(C)sc2ccc(OCc3scnc3C)cc12 [Cpd 137, N,2-dimethyl-5-[(4-methyl-1,3-thiazol-5-yl)methoxy]-1-benzothiophene-3-carboxamide]	1000 to 20000
Cc1ncc(COc2ccc3sc(C)c(C(=O)NC4(CO)CC4)c3c2)s1 [Cpd 022, N-[1-(hydroxymethyl)cyclopropyl]-2-methyl-5-[(2-methyl-1,3-thiazol-5-yl)methoxy]-1-benzothiophene-3-carboxamide]	1000 to 20000
COc1ncccc1COc1ccc2sc(C)c(C(=O)NC3(CO)CC3)c2c1 [Cpd 142, N-[1-(hydroxymethyl)cyclopropyl]-5-[(2-methoxypyridin-3-yl)methoxy]-2-methyl-1-benzothiophene-3-carboxamide]	1000 to 20000
Cc1sc2ccc(OCc3cccnc3O)cc2c1C(=O)N[C@@H](CO)C(N)=O [Cpd 054, (2S)-3-hydroxy-2-({5-[(2-hydroxypyridin-3-yl)methoxy]-2-methyl-1-benzothiophen-3-yl}formamido)propanamide]	1000 to 20000
O=C(NCCN1CCOC1=O)c1c(C(F)F)sc2ccc(OCc3ccccc3)cc12 [Cpd 149, 5-(benzyloxy)-2-(difluoromethyl)-N-[2-(2-oxo-1,3-oxazolidin-3-yl)ethyl]-1-benzothiophene-3-carboxamide]	> 20000
Cc1sc2ccc(OCc3ccccc3F)cc2c1C(=O)N[C@@H]1CCN(CCO)C1=O [Cpd 055, 5-[(2-fluorophenyl)methoxy]-N-[(3R)-1-(2-hydroxyethyl)-2-oxopyrrolidin-3-yl]-2-methyl-1-benzothiophene-3-carboxamide]	1000 to 20000
Cc1sc2ccc(OCC3CCOCC3)cc2c1C(=O)NC(C)(CO)C(N)=O (single isomer, unassigned) [Cpd 067 - En1, 3-hydroxy-2-methyl-2-({2-methyl-5-[(oxan-4-yl)methoxy]-1-benzothiophen-3-yl}formamido)propanamide]	> 20000
CN1CC(NC(=O)c2c(C(F)F)sc3ccc(OCc4ccccc4)cc23)C(F)(F)C1 (stereo not shown) [Cpd 119, 5-(benzyloxy)-N-(4,4-difluoro-1-methylpyrrolidin-3-yl)-2-(difluoromethyl)-1-benzothiophene-3-carboxamide]	1000 to 20000
Cc1sc2ccc(OCc3cccnc3C(F)(F)F)cc2c1C(=O)N[C@H](CO)C(N)=O [Cpd 058, (2R)-3-hydroxy-2-[(2-methyl-5-{[2-(trifluoromethyl)pyridin-3-yl]methoxy}-1-benzothiophen-3-yl)formamido]propanamide]	< 1000
Cc1sc2ccc(OCc3cccnc3C(F)(F)F)cc2c1C(=O)NC1CCN(C)C1 (stereo not shown) [Cpd 125, 2-methyl-N-(1-methylpyrrolidin-3-yl)-5-{[2-(trifluoromethyl)pyridin-3-yl]methoxy}-1-benzothiophene-3-carboxamide]	< 1000
Cc1sc2ccc(OCc3cccnc3C(F)(F)F)cc2c1C(=O)NC1CCN(C)CC1 [Cpd 129, 2-methyl-N-(1-methylpiperidin-4-yl)-5-{[2-(trifluoromethyl)pyridin-3-yl]methoxy}-1-benzothiophene-3-carboxamide]	< 1000
Cc1sc2ccc(OCc3ccccc3)cc2c1C(=O)Nc1ccn(C)n1 [Cpd 091, 5-(benzyloxy)-2-methyl-N-(1-methyl-1H-pyrazol-3-yl)-1-benzothiophene-3-carboxamide]	< 1000
Cc1ncsc1COc1ccc2sc(C)c(C(=O)NCCN3CCOC3=O)c2c1 [Cpd 048, 2-methyl-5-[(4-methyl-1,3-thiazol-5-yl)methoxy]-N-[2-(2-oxo-1,3-oxazolidin-3-yl)ethyl]-1-benzothiophene-3-carboxamide]	1000 to 20000
Cc1ncsc1COc1ccc2sc(C)c(C(=O)NC(C)(C)C(N)=O)c2c1 [Cpd 031, 2-methyl-2-({2-methyl-5-[(4-methyl-1,3-thiazol-5-yl)methoxy]-1-benzothiophen-3-yl}formamido)propanamide]	< 1000
Cc1sc2ccc(OCc3cccnc3O)cc2c1C(=O)NC(C)(C)C(N)=O [Cpd 066, 2-({5-[(2-hydroxypyridin-3-yl)methoxy]-2-methyl-1-benzothiophen-3-yl}formamido)-2-methylpropanamide]	< 1000
CNC(=O)c1c(C(F)F)sc2ccc(OCc3ccccc3)cc12 [Cpd 135, 5-(benzyloxy)-2-(difluoromethyl)-N-methyl-1-benzothiophene-3-carboxamide]	> 20000
O=C(NC1CCNC1=O)c1c(C(F)F)sc2ccc(OCc3ccccc3)cc12 (stereo not shown) [Cpd 146, 5-(benzyloxy)-2-(difluoromethyl)-N-(2-oxopyrrolidin-3-yl)-1-benzothiophene-3-carboxamide]	< 1000

Second part, the compound after the results:

IC50 [nM]	SMILES
< 1000	COc1ncccc1COc1ccc2sc(C)c(C(=O)N[C@@H](C)C(N)=O)c2c1 [Cpd 138, (2S)-2-({5-[(2-methoxypyridin-3-yl)methoxy]-2-methyl-1-benzothiophen-3-yl}formamido)propanamide]
< 1000	Cc1sc2ccc(OCc3cccnc3C(F)(F)F)cc2c1C(=O)NCC1CCC(=O)N1 (stereo not shown) [Cpd 103, 2-methyl-N-[(5-oxopyrrolidin-2-yl)methyl]-5-{[2-(trifluoromethyl)pyridin-3-yl]methoxy}-1-benzothiophene-3-carboxamide]
< 1000	Cc1ncsc1COc1ccc2sc(C)c(C(=O)N[C@@H](CO)C(N)=O)c2c1 [Cpd 027, (2S)-3-hydroxy-2-({2-methyl-5-[(4-methyl-1,3-thiazol-5-yl)methoxy]-1-benzothiophen-3-yl}formamido)propanamide]
< 1000	Cc1sc2ccc(OCc3ccccn3)cc2c1C(=O)NC1(C(N)=O)CCOCC1 [Cpd 071, 4-{2-methyl-5-[(pyridin-2-yl)methoxy]-1-benzothiophene-3-amido}oxane-4-carboxamide]
< 1000	COc1ncccc1COc1ccc2sc(C)c(C(=O)N[C@@H](CO)C(N)=O)c2c1 [Cpd 139, (2S)-3-hydroxy-2-({5-[(2-methoxypyridin-3-yl)methoxy]-2-methyl-1-benzothiophen-3-yl}formamido)propanamide]
< 1000	Cc1sc2ccc(OCc3ccccn3)cc2c1C(=O)NC1(CO)COC1 [Cpd 086, N-[3-(hydroxymethyl)oxetan-3-yl]-2-methyl-5-[(pyridin-2-yl)methoxy]-1-benzothiophene-3-carboxamide]
< 1000	Cc1ncc(COc2ccc3sc(C)c(C(=O)NC(C)(C)C(N)=O)c3c2)s1 [Cpd 018, 2-methyl-2-({2-methyl-5-[(2-methyl-1,3-thiazol-5-yl)methoxy]-1-benzothiophen-3-yl}formamido)propanamide]
< 1000	Cc1nc(COc2ccc3sc(C)c(C(=O)NC(C)(CO)C(N)=O)c3c2)cs1 (single isomer, unassigned) [Cpd 015 - En1, 3-hydroxy-2-methyl-2-({2-methyl-5-[(2-methyl-1,3-thiazol-4-yl)methoxy]-1-benzothiophen-3-yl}formamido)propanamide]
< 1000	Cc1ncsc1COc1ccc2sc(C)c(C(=O)NCC3CCC(=O)N3)c2c1 (stereo not shown) [Cpd 046, 2-methyl-5-[(4-methyl-1,3-thiazol-5-yl)methoxy]-N-[(5-oxopyrrolidin-2-yl)methyl]-1-benzothiophene-3-carboxamide]
< 1000	Cc1sc2ccc(OCc3cccnc3O)cc2c1C(=O)N[C@@H](C)C(N)=O [Cpd 010, (2S)-2-({5-[(2-hydroxypyridin-3-yl)methoxy]-2-methyl-1-benzothiophen-3-yl}formamido)propanamide]
< 1000	Cc1sc2ccc(OCc3ccccc3F)cc2c1C(=O)NC1(CO)CC1 [Cpd 074, 5-[(2-fluorophenyl)methoxy]-N-[1-(hydroxymethyl)cyclopropyl]-2-methyl-1-benzothiophene-3-carboxamide]
< 1000	Cc1sc2ccc(OCc3ccccn3)cc2c1C(=O)NC(C)(C)C(N)=O [Cpd 064, 2-methyl-2-({2-methyl-5-[(pyridin-2-yl)methoxy]-1-benzothiophen-3-yl}formamido)propanamide]
< 1000	Cc1sc2ccc(OCc3cccnc3C(F)(F)F)cc2c1C(=O)NCc1cccc(O)n1 [Cpd 105, N-[(6-hydroxypyridin-2-yl)methyl]-2-methyl-5-{[2-(trifluoromethyl)pyridin-3-yl]methoxy}-1-benzothiophene-3-carboxamide]
< 1000	Cc1sc2ccc(OCC3CC3)cc2c1C(=O)N[C@@H](CO)C(N)=O [Cpd 050, (2S)-2-{[5-(cyclopropylmethoxy)-2-methyl-1-benzothiophen-3-yl]formamido}-3-hydroxypropanamide]
< 1000	Cc1ncsc1COc1ccc2sc(C)c(C(=O)N[C@@H](C)C(N)=O)c2c1 [Cpd 012, (2S)-2-({2-methyl-5-[(4-methyl-1,3-thiazol-5-yl)methoxy]-1-benzothiophen-3-yl}formamido)propanamide]
< 1000	Cc1ncc(COc2ccc3sc(C)c(C(=O)NC(C)(CO)C(N)=O)c3c2)s1 (single isomer, unassigned) [Cpd 019 - En1, 3-hydroxy-2-methyl-2-({2-methyl-5-[(2-methyl-1,3-thiazol-5-yl)methoxy]-1-benzothiophen-3-yl}formamido)propanamide]
< 1000	Cc1sc2ccc(OCc3ccccn3)cc2c1C(=O)NC1(CO)CCC1 [Cpd 078, N-[1-(hydroxymethyl)cyclobutyl]-2-methyl-5-[(pyridin-2-yl)methoxy]-1-benzothiophene-3-carboxamide]
< 1000	O=C(O)c1c(C(F)F)sc2ccc(OCc3ccccc3)cc12 [Cpd 150, 5-(benzyloxy)-2-(difluoromethyl)-1-benzothiophene-3-carboxylic acid]
